Source: PubChem BioAssay AID179 (DTP/NCI, 2004)
Activity calls are given as the source filed them.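 How the source made its calls: active means compounds giving half or more protection of infected cells from virus-caused growth loss, again on retest; inactive means the rest.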

System: CEM cells HIV-1 protection, formazan growth assay
Experiment: NCI AIDS Antiviral Assay
Details: for IC50: measured here: growth of uninfected CEM cells
In short: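 Five concentrations of each compound were applied to infected and uninfected human CEM cells. Protection from HIV-1 was judged from growth measured with a soluble formazan assay.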

SMILES | EC50 | IC50 | outcome
OCC1C(O)[C@@H]2OC3(CCCC3)O[C@@H]2CN1OC/C=C/c1ccccc1 (some centres undefined) | > 200 µM | 145 µM | –
CC(=O)C1CC=C(C)CC1 (centres undefined) | > 1820 µM | 141 µM | –
COc1cc(CC(=O)O)c(C(=O)c2ccc(C#N)cc2)cc1OC | > 200 µM | > 200 µM | –
CC(C)Cc1nc(-c2cc3ccccc3[nH]2)c(CC(C)C)nc1-c1cc2ccccc2[nH]1 | > 4.68 µM | > 4.68 µM | –
CC1(C)C2=CCCC(=O)[C@@]2(C)CC[C@@H]1O | – | – | inactive
COC1/C=C\OC2(C)Oc3c(C)c(O)c4c(O)c(c(/C=N\NC(=O)CC(=O)N/N=C/c5c6c(O)c7c(O)c(C)c8c(c7c5O)C(=O)C(C)(O/C=C/C(OC)C(C)C(OC(C)=O)C(C)C(O)C(C)C(O)C(C)/C=C/C=C(C)C(=O)N6)O8)c(O)c4c3C2=O)NC(=O)/C(C)=C\C=C/C(C)C(O)C(C)C(O)C(C)C(OC(C)=O)C1C (centres undefined) | > 115 µM | 87.1 µM | –
O=C(CO[N+](=O)[O-])OCC(=O)c1ccccc1 | – | – | inactive
COc1cc(C[C@H]2c3cc(OC)c(OC)cc3CCN2C)c(Oc2cc3c(cc2OC)-c2c(OC)c(OC)cc4c2[C@H](C3)N(C)CC4)cc1OC | – | – | inactive
COC(=O)/C=C\C(C#N)(C#N)N=Cc1cccs1 | > 2 µM | 0.389 µM | –
CC(=S)N=Cc1c(O)[nH]c(=O)[nH]c1=O | > 200 µM | > 200 µM | –
COC(=O)c1ccc2c(c1)CC1(C2)Cc2cc3c(c(C(=O)OC)c2C1)CCCC3 (centres undefined) | > 200 µM | > 200 µM | –
Cc1ccc(N2CCC3(CC2)OCCO3)cc1 | – | – | inactive
NC(N)=NCCC(O)(P(=O)(O)O)P(=O)(O)O | > 200 µM | > 200 µM | –
CC(C)=C1C(=O)N(c2ccccc2)N(c2ccccc2)C1=O | > 200 µM | 79.4 µM | –
O=C(O)CSC1=NNC2(C(=O)N1)c1ccccc1-c1ccccc12 | > 200 µM | 58.9 µM | –
Cc1ccc(-n2cc(-c3ccc(Cl)cc3)c3c(N/N=C4\SCC(=O)N4C)ncnc32)cc1 | > 200 µM | 8.32 µM | –
CC(C)=CC(=O)CC(=O)C(=O)Nc1ccc(Cl)c(Cl)c1 | > 417 µM | > 417 µM | –
COC(=O)C1=CC(O)CCC1c1ccc(OC)cc1 (centres undefined) | > 363 µM | > 363 µM | –
COc1cccc(C2=NC(C(C)C)CO2)c1OC (centres undefined) | > 525 µM | 316 µM | –
Cc1nnc2sc3ccccc3n12 | – | – | inactive
COc1ccc(C2(OC)Oc3ccccc3-c3nc4ccccc4nc32)cc1 (centres undefined) | > 69.2 µM | > 69.2 µM | –
COc1ccc2c[n+](C)c3c4cc(OC)c(OC)cc4ccc3c2c1 | – | – | inactive

SMILES | EC50 | IC50 | outcome
O=C(NNC(=O)c1ccccc1O)c1cccc(Br)c1 | > 200 µM | 6.46 µM | –
CC(C)CCCC(C)C1CCC2C3CC[C@H]4C[C@@H](CCC=C(c5cc(Cl)c(OCc6cccc(B7OC(C)(C)C(C)(C)O7)c6)c(C(=O)OCc6cccc(B7OC(C)(C)C(C)(C)O7)c6)c5)c5cc(Cl)c(OCc6cccc(B7OC(C)(C)C(C)(C)O7)c6)c(C(=O)OCc6cccc(B7OC(C)(C)C(C)(C)O7)c6)c5)CC[C@]4(C)C3CC[C@]12C (some centres undefined) | > 50.1 µM | > 50.1 µM | –
C=C(C)C(O)C(OCC)c1c(OC)ccc2ccc(=O)oc12 (centres undefined) | > 200 µM | > 200 µM | –
COc1ccc2c(c1)CC[C@@H]1[C@@H]2CC[C@]2(C)/C(=N/OCCN3CCCC3)CC[C@@H]12 | > 200 µM | 1.12 µM | –
Cc1nn(-c2ccc([N+](=O)[O-])cc2)c2c1C(C)(C)C(C#N)=C(N)O2 | > 200 µM | > 200 µM | –
c1ccc(C[N+]23CCC(CC2)C3c2ccccc2)cc1 (centres undefined) | > 832 µM | 148 µM | –
Nc1nsc2nc3ccccc3cc12 | – | – | inactive
CCCCOc1cc(C[S+]2CCCC2)c(OC)cc1C[S+]1CCCC1 | > 145 µM | 14.8 µM | –
CCCCCCN=Cc1c(O)c(O)c(C(C)C)c2cc(C)c(-c3c(C)cc4c(C(C)C)c(O)c(O)c(C=NCCCCCC)c4c3O)c(O)c12 | > 200 µM | 129 µM | –
CN(C)c1ccc(Cc2cc3c(O)ccc(O)c3cc(Cc3ccc(N(C)C)cc3)c2=O)cc1 | > 200 µM | 3.16 µM | –
OC1C=CC2C(CC1)C1(c3ccccc3)OC2(c2ccccc2)c2ccccc21 (centres undefined) | – | – | inactive
CCc1cccc(C)c1NC(=O)NS(=O)(=O)c1ccc(C)cc1 | > 759 µM | > 759 µM | –
Nc1ccc(S(=O)(=O)Cc2ccc(C(=O)O)cc2)cc1 | > 324 µM | > 324 µM | –
CNC(=O)O/N=C(/C)c1cccc([N+](=O)[O-])c1 | > 200 µM | > 200 µM | –
[N-]=[N+]=C(S(=O)(=O)O)S(=O)(=O)O | > 200 µM | > 200 µM | –
C[N+](C)(C)CC(=O)N/N=C/c1oc(-c2c(O)ccc3ccccc23)c(-c2c(O)ccc3ccccc23)c1[N+](=O)[O-] | > 45.7 µM | 24.5 µM | –
CN1CN(C)N(C(=O)c2ccccc2)CN1C(=O)c1ccccc1 | > 200 µM | 97.7 µM | –
CCc1nnc(CC)n1NCCCC(=O)O | > 200 µM | > 200 µM | –
COC(=O)C(=O)C(C(=O)C(=O)Nc1ccccc1C(=O)OC)c1nc2ccc(C(=O)c3ccccc3)cc2[nH]c1=O (centres undefined) | > 89.1 µM | 52.5 µM | –
CCCC(=O)OC1C(C(O)CO)OC2OC(C)(C)OC21 (centres undefined) | > 871 µM | > 871 µM | –
CNNC1=NS(=O)(=O)c2cc(C)c(Cl)cc2S1 | > 200 µM | > 200 µM | –
O=c1c2ccccc2oc2nc3cc(Cl)ccc3n12 | > 200 µM | > 200 µM | –

SMILES | EC50 | IC50 | outcome
O=S(=O)(Cc1ccccc1)c1nnc(S(=O)(=O)c2ccc(Cl)cc2)s1 | > 200 µM | 5.5 µM | –
CC(=O)CC(=O)N(CCN(C(=O)CC(C)=O)c1ccccc1)c1ccccc1 | > 178 µM | > 178 µM | –
COc1cccc(C2c3cc4c(cc3OC(NNc3ccccc3)C2C)OCO4)c1OC (centres undefined) | > 200 µM | 8.13 µM | –
c1cc(-c2cn3c(n2)SCC3)ccn1 | > 437 µM | 182 µM | –
Cc1ccc(C)c(NC(=O)CCc2n[nH]c(=S)o2)c1 | > 9.33 µM | > 9.33 µM | –
Cc1ccc(C(=O)c2c(C)cccc2C(=O)O)c(C)c1 | > 200 µM | > 200 µM | –
CC1SC(=O)SC1C (centres undefined) | > 1700 µM | > 1700 µM | –
CN(CCC#N)c1ccc(/C=C(\C#N)c2ccc(Cl)cc2)cc1 | > 200 µM | 15.5 µM | –
CC1Cn2c(Cc3ccccc3)nnc2S1 (centres undefined) | – | – | inactive
C=CC(C)(O)CN(C=O)Cc1ccccc1 (centres undefined) | > 589 µM | > 589 µM | –
O=C(CCc1nc(=S)[nH][nH]1)Nc1cc(Cl)c(Cl)cc1Cl | > 195 µM | > 195 µM | –
O=C(O)CN(c1ccccc1)S(=O)(=O)c1cccc([N+](=O)[O-])c1 | – | – | inactive
O=c1[nH]c2cc3c(cc2n2cccc12)oc1ccccc13 | > 200 µM | > 200 µM | –
CC(C)C12C=C3CCC4C(C)(C(=O)O)CCCC4(C)C3(CC1)OO2 (centres undefined) | > 741 µM | 162 µM | –
O=C1C2CCCC3CCCC(C(=O)N1NC1CCCCC1)C32 (centres undefined) | > 200 µM | 107 µM | –
O=c1cc(C(F)(F)F)c2cc3c4c(c2o1)CCCN4CCC3 | > 4.68 µM | > 4.68 µM | –
CCOc1ccncc1[N+](=O)[O-] | > 200 µM | > 200 µM | –
Brc1ccc(C[N+]23CCN(CC2)CC3)cc1 | > 692 µM | > 692 µM | –
CN(C)[C@@H]1C(=O)C(C(=O)NCNC2(C(=O)O)CCCC2)=C(O)[C@@]2(O)C(=O)C3=C(O)c4c(O)cccc4[C@@](C)(O)[C@H]3C[C@@H]12 | > 214 µM | 117 µM | –
CC(=O)Nc1ccc(/C=C/C(=O)c2sc(-c3cccnc3)nc2C)cc1 | > 51.3 µM | > 51.3 µM | –
CCCCC[C@H]1CCCCCCCCCC(=O)OC2C(O[C@@H]3OC(C)[C@H](OC(=O)[C@@H](C)CC)C(O[C@@H]4OC(C)[C@H](O)C(O)[C@@H]4O)[C@@H]3OC(=O)[C@H](C)CC)[C@H](OC3C(O)[C@@H](O)C(C)O[C@H]3O1)OC(CO)[C@H]2O (some centres undefined) | > 200 µM | 11.2 µM | –
CC1(C)C2CCC(N)(C2)C1O (centres undefined) | > 200 µM | > 200 µM | –

SMILES | EC50 | IC50 | outcome
COc1cccc(C=O)c1[O-].[O]=[U](=[O])([OH2+])[OH2+] | > 79.4 µM | 39.8 µM | –
Cc1ccc2[nH]c3c(c2c1)CCC/C3=N/N=C(N)N | > 20 µM | 3.02 µM | –
CC(C)(C)[Si](C)(C)OCC1OC(n2ccc(=O)[nH]c2=O)C(O[Si](C)(C)C(C)(C)C)C12OC2C(=O)NO (centres undefined) | > 20 µM | 1.45 µM | –
O=C1COC(c2ccccc2O)=NN1Cc1ccccc1 | > 49 µM | > 49 µM | –
CCOP(=O)(OCC)/C(C#N)=C/c1ccc2c(c1)OCO2 | > 427 µM | > 427 µM | –
COC(=O)c1ccccc1C1CN=NC12Cc1ccc3c(c1C2=O)CCC3 (centres undefined) | > 200 µM | – | –
COc1ccc(C(O)c2nccn2C)c(OC)c1 (centres undefined) | > 200 µM | > 200 µM | –
O=c1[nH]c(=O)n(COCc2ccccc2)cc1Nc1ccc(Br)cc1 | > 200 µM | > 200 µM | –
CC1CN(c2cc3c(cc2F)c(=O)c(C(=O)O)cn3-c2ccc(F)cn2)CC(C)N1 (centres undefined) | > 200 µM | > 200 µM | –
CCOC(=O)/C(=C\c1ccc(N(CCC#N)CCC#N)cc1)NC(=O)c1cc([N+](=O)[O-])ccc1Cl | > 10.5 µM | > 10.5 µM | –
N#C[C@H](c1ccccn1)c1nc2ccccc2nc1Cl | > 200 µM | 115 µM | –
O=C(/C=N/O)Nc1cccc(Cl)c1I | > 110 µM | 93.3 µM | –
CN1Cc2c(ccc3c2OCO3)C2C(O)Cc3cc4c(cc3C21)OCO4 (centres undefined) | > 0.912 µM | 0.234 µM | –
CC(C)(C)OC(=O)NCC(=O)NC1C/C(=N\O)c2sccc21 (centres undefined) | > 200 µM | > 200 µM | –
CC(C)CC(=O)NC(C(=O)NC(C(=O)NC(CC(C)C)C(O)CC(=O)NC(C)C(=O)NC(CC(C)C)C(O)CC(=O)O)C(C)C)C(C)C (centres undefined) | > 36.3 µM | > 36.3 µM | –
COc1cc(O)c2c(c1)cc(O)c1c(=O)cc(C)oc12 | > 195 µM | 10.5 µM | –
Cc1cc2c(nn1)-c1ccccc1C2=O | > 200 µM | 105 µM | –
CCN(CC)CC(C(C)=O)C(c1ccccc1)c1c(O)c2ccccc2oc1=O (centres undefined) | > 43.7 µM | > 43.7 µM | –
O=C(Nc1ccc(CCC2=NCCCN2)cc1)c1ccc(C(=O)Nc2ccc(CCC3=NCCCN3)cc2)cc1 | 42.7 µM | 158 µM | –
